According to US20220127258A1, “AROMATIC RING OR HETEROAROMATIC RING COMPOUNDS, PREPARATION METHOD THEREFOR AND MEDICAL USE THEREOF” (The National Institutes of Pharmaceutical R&D Co., Ltd., priority 2019, published 2022):

What was measured:
[1] = Visual inspection of solubility of test sample in extracellular fluid; format: physicochemical; settings: 1 nM to 1 μM in extracellular fluid pH 7.4, DMSO 0.1%
Experimental: Extracellular fluid: 140 mM NaCl, 3.5 mM KCl, 1 mM MgCl2, 2 mM CaCl2, 10 mM glucose, 10 mM HEPES, 1.25 mM NaH2PO4, pH=7.4 (adjusted by NaOH). The stock solution of the compound of Example 8 of the present invention (30.26 mM solution in DMSO) was successively diluted with 10 mL of extracellular fluid to obtain 0.3 μM, 1 μM, 3 μM, […], and 30 μM solutions. […] 10 mg of Cisapride was dissolved in 2066.29 μL of dimethyl sulfoxide (DMSO) to obtain a 10 mM stock solution. The Cisapride stock solution was successively diluted with dimethyl sulfoxide (DMSO) to obtain a total of 4 concentrations of 1 μM, 10 μM, 100 μM and 1 mM. Before the test, 10 μL of the diluent at each concentration was added to 10 mL of extracellular fluid to ensure that the DMSO concentration was 0.1%. The final working concentration of Cisapride was 1 nM, 10 nM, 100 nM and 1 μM.

FXR = molecular target: T1, FXR (Homo sapiens, UniProt Q96RI1); assay: FXR agonistic activity, luciferase assay; format: cell-based; settings: luc2P-GAL4-HEK293 cells transfected with pBIND-FXR, 24 hours
T1 sequence (Q96RI1 262-486 limits assumed): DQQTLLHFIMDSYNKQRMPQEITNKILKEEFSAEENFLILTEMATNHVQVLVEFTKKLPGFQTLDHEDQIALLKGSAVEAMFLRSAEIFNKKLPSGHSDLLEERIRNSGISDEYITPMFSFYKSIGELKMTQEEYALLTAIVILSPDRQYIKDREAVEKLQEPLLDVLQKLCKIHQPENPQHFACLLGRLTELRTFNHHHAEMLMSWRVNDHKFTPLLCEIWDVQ
Experimental: The FXR agonistic activity of the compound of the present invention was evaluated using the luciferase assay.
The experimental process comprises the follows. The luc2P-GAL4-HEK293 stably transfected cell line (the cell line was established by transfecting pGL4.35 plasmid with HEK293 cells which was then subjected to Hygromycin B screening. The cell contained 9×GAL4 UAS and firefly luciferase reporter gene. The ligand-activated LBD-GAL4 DBD fusion protein can enter the nucleus to bind to 9×GAL4 UAS and activate the transcription of the downstream luciferase reporter gene) was transferred to a 96-well plate with […] per well. pBIND-FXR (Which was constructed by inserting FXR-LBD into pFN26A-BIND hRluc-neo Flexi® vector. The plasmid was 7.5 kb in size, Amp resistant, contained FXR-LBD, and can express FXR-LBD and GAL4 DBD fusion proteins) was transfected using X-tremeGENE HP transfection reagent. The ratio of plasmid to transfection reagent was 1 μg: 2 μl. The specific amount was 100 ng of plasmid and 0.2 μl of X-tremeGENE HP transfection reagent per well. The test compounds (the highest concentration of each compound was 30 μM, 3-fold dilution, a total of 10 concentrations) were added to induce the expression of luciferase. After 24 hours, the 96-well plate containing the test cells was taken out from the incubator, and placed at room temperature. Dual-Glo® Luciferase Reagent with the volume equal to the volume of the medium in the well (80 μl/well) was added to each well and mixed well. The plate was incubated at room temperature for 20 minutes to allow the cells to be fully lysed. All the liquid in the plate was transferred to a 96-well microtiter plate, and the firefly luciferin value was measured with a multi-function plate reader (manufacturer: Bio Tek (USA); model: Synergy4). Dual-Glo® a Stop & Glo® Reagent with the volume equal to the volume of the initial medium (80 μl/well) was added to each well and mixed well. The plate was incubated at room temperature for 10 minutes, and the renilla luciferin value was measured. The measurement order of renilla fluorescence should be the same as that of firefly fluorescence. Curve fitting and EC50 calculation were conducted using GraphPad Prism 5 software by nonlinear regression method. The fitting equation is: Y=Bottom+(Top−Bottom)/(1+10^((Log EC50−X)*HillSlope)), wherein EC50 refers to the semi-effective concentration, Top refers to the maximum effect, Bottom refers to the blank effect, and HillSlope refers to the slope.

[2] = tested on: cholestasis rat induced by ANIT; assay: Efficacy on the cholestasis rat model induced by 1-naphthyl isothiocyanate (ANIT); format: in vivo, SD rats; design: ALT / AST / GGT / TBA: unit not given here; settings: for level of ALT, AST, GGT and TBA in the serum of ANIT rat (in words): 3 and 10 mg/kg/d, conclusion of Test Example 2; for ALT / AST / GGT / TBA: serum, 4 days, ANIT rat
Experimental: Animals: SD rats, male, 7 to 8 weeks old, weight: 220 to 240 g, purchased from Beijing Vital River Laboratory Animal Technology Co., Ltd., SPF grade, Certificate No.: SCXK (Beijing) 2016-0011, license issuing administration: Beijing Municipal Commission of Science and Technology.
Sample formulation: The compound of the present invention was added to DMSO, and dissolved completely by ultrasound. 0.5% CMC-Na was added to constant volume (DMSO: 0.5% CMC-Na=1:99), and the solution was homogenized by ultrasound for later use.
After 3 to 5 days of acclimation, the animals were divided into 20 groups according to body weight: normal group, model group, Example 8 (3 mg/kg/d, 10 mg/kg/d) group, Example 11 (3 mg/kg/d, 10 mg/kg/d) group, Example 12 (3 mg/kg/d, 10 mg/kg/d) group, Example 14 (3 mg/kg/d, 10 mg/kg/d) group, Example 20 (3 mg/kg/d, 10 mg/kg/d) group, Example 22 (3 mg/kg/d, 10 mg/kg/d) group, Example 26 (3 mg/kg/d, 10 mg/kg/d) group, Example 28 (3 mg/kg/d, 10 mg/kg/d) group, and Example 29 (3 mg/kg/d, 10 mg/kg/d) group, with 10 rats for each group. Intragastric administration was conducted with an administration volume of 10 mL/kg, once a day, for a total of 4 days. On Day 2, ANIT (1-naphthyl isothiocyanate, Macklin, purity: 98%, item number: N814658, CAS number: 551-06-4, specification: 5 g/bottle, storage conditions: 2 to 8 degrees, batch number: C10116101) with a dose of 50 mg/kg and an administration volume of 5 mL/kg was administered intragastrically once to each animal (except for animals in the normal group) 4 hours after the administration. The animals were fasted on Day 4 morning. The animals were anesthetized by isoflurane inhalation using a small animal anesthesia machine. Blood was collected from the venous plexus behind the eyeball using a capillary glass tube (about 1 ml per animal), and then left to stand for about one hour. It was centrifuged at 3500 rpm for 10 minutes to obtain the serum. ALT, AST, GGT and TBA indexes as well as the plasma concentration of the compound were determined using an AU480 automatic biochemical analysis system (BECKMAN COULTER). Liver was collected, weighed, and cutted into pieces. Normal saline was added (liver weight: normal saline=1:2), and the mixture was homogenized and freezed. The concentration of the compound in liver was determined using an ultra performance liquid chromatograph (Shimadzu, LC 30AD) and triple quadrupole mass spectrometer (AB, TQ5500).

Structure (SMILES): COc1cc(N)c(Cl)cc1C(=O)NC1CCN(CCCOc2ccc(F)cc2)CC1OC (centres unmarked) [Cisapride, reference compound]
- solubility, visually inspected [1]: completely dissolved without visible precipitation

Structure (SMILES): O=C(O)c1ccc(-c2nnc(N3[C@@H]4CC[C@H]3C[C@@H](OCc3c(-c5c(Cl)cccc5Cl)noc3C3CC3)C4)o2)cc1F [Example 12]
- EC50 (FXR): 100 to 500 nM
- level of ALT, AST, GGT and TBA in the serum of ANIT rat (in words) [2]: significantly reduce
- ALT ([2]; 3 mg/kg/d intragastric): 122.5 ± 89.7
- AST ([2]; 3 mg/kg/d intragastric): 314.2 ± 237.9
- GGT ([2]; 3 mg/kg/d intragastric): 2.2 ± 0.8
- TBA ([2]; 3 mg/kg/d intragastric): 69.0 ± 66.7
- ALT ([2]; 10 mg/kg/d intragastric): 54.7 ± 27.3
- AST ([2]; 10 mg/kg/d intragastric): 139.3 ± 34.6
- GGT ([2]; 10 mg/kg/d intragastric): 1.9 ± 0.5
- TBA ([2]; 10 mg/kg/d intragastric): 25.4 ± 14.3

Structure (SMILES): O=C(O)c1csc(-c2nnc(N3[C@@H]4CC[C@H]3C[C@@H](OCc3c(-c5c(Cl)cccc5Cl)noc3C3CC3)C4)o2)c1 [Example 20]
- EC50 (FXR): 50 to 100 nM
- ALT ([2]; 3 mg/kg/d intragastric): 141.5 ± 101.4
- AST ([2]; 3 mg/kg/d intragastric): 400.2 ± 304.4
- GGT ([2]; 3 mg/kg/d intragastric): 2.8 ± 1.2
- TBA ([2]; 3 mg/kg/d intragastric): 119.5 ± 124.7
- ALT ([2]; 10 mg/kg/d intragastric): 50.9 ± 22.4
- AST ([2]; 10 mg/kg/d intragastric): 139.8 ± 58.4
- GGT ([2]; 10 mg/kg/d intragastric): 2.6 ± 0.5
- TBA ([2]; 10 mg/kg/d intragastric): 16.1 ± 8.0

Structure (SMILES): O=C(O)c1ccc(-c2nnc(N3[C@@H]4CC[C@H]3C[C@@H](OCc3c(-c5ccccc5OC(F)(F)F)noc3C3CC3)C4)o2)cc1F [Example 26]
- EC50 (FXR): 100 to 500 nM
- level of ALT, AST, GGT and TBA in the serum of ANIT rat (in words) [2]: significantly reduce
- ALT ([2]; 3 mg/kg/d intragastric): 62.2 ± 27.6
- AST ([2]; 3 mg/kg/d intragastric): 187.7 ± 50.4
- GGT ([2]; 3 mg/kg/d intragastric): 1.9 ± 0.8
- TBA ([2]; 3 mg/kg/d intragastric): 23.2 ± 10.1
- ALT ([2]; 10 mg/kg/d intragastric): 50.0 ± 11.2
- AST ([2]; 10 mg/kg/d intragastric): 162.3 ± 27.7
- GGT ([2]; 10 mg/kg/d intragastric): 1.4 ± 0.7
- TBA ([2]; 10 mg/kg/d intragastric): 35.3 ± 13.2

Structure (SMILES): O=C(O)c1cccc(-c2nnc(N3[C@@H]4CC[C@H]3C[C@@H](OCc3c(-c5ccccc5OC(F)(F)F)noc3C3CC3)C4)o2)c1 [Example 28]
- EC50 (FXR): < 25 nM
- level of ALT, AST, GGT and TBA in the serum of ANIT rat (in words) [2]: significantly reduce
- ALT ([2]; 3 mg/kg/d intragastric): 147.1 ± 66.2
- AST ([2]; 3 mg/kg/d intragastric): 342.7 ± 153.6
- GGT ([2]; 3 mg/kg/d intragastric): 2.3 ± 0.5
- TBA ([2]; 3 mg/kg/d intragastric): 66.2 ± 58.4
- ALT ([2]; 10 mg/kg/d intragastric): 46.6 ± 12.1
- AST ([2]; 10 mg/kg/d intragastric): 150.8 ± 28.7
- GGT ([2]; 10 mg/kg/d intragastric): 1.9 ± 0.5
- TBA ([2]; 10 mg/kg/d intragastric): 20.5 ± 6.0

Structure (SMILES): O=C(O)c1ccc(-c2nnc(N3[C@@H]4CC[C@H]3C[C@@H](OCc3c(-c5ccccc5OC(F)(F)F)noc3C3CC3)C4)o2)c(F)c1 [Example 29]
- EC50 (FXR): 100 to 500 nM
- level of ALT, AST, GGT and TBA in the serum of ANIT rat (in words) [2]: significantly reduce
- ALT ([2]; 3 mg/kg/d intragastric): 82.0 ± 44.5
- AST ([2]; 3 mg/kg/d intragastric): 256.0 ± 168.8
- GGT ([2]; 3 mg/kg/d intragastric): 2.3 ± 1.1
- TBA ([2]; 3 mg/kg/d intragastric): 51.7 ± 65.2
- ALT ([2]; 10 mg/kg/d intragastric): 77.8 ± 69.5
- AST ([2]; 10 mg/kg/d intragastric): 189.4 ± 76.9
- GGT ([2]; 10 mg/kg/d intragastric): 1.9 ± 0.4
- TBA ([2]; 10 mg/kg/d intragastric): 26.8 ± 13.6
